Reference: patent publication US20020192256A1, “Water miscible pesticide containing a synergistic cocktail of plant alkaloids” (priority 2000, published 2002)

Tested on: small green leafhoppers
Assay: Insecticidal activity of pesticides on small green leafhoppers on tea trees (Table IX)
Format: in vivo
Set-up: 1d after Spray Efficacy (%) / 3d after Spray Efficacy (%) / 7d after Spray Efficacy (%): concentration or dose not given beside the values
Method: Ninety-eight kilograms of this pesticide was mixed with 2 Kg of imidacloprid with low toxicity to mammals. The mixture was tested for its insecticidal efficacy on small green leafhoppers on tea trees and compared with those of 40% dichlorophos emulsion and imidacloprid, a highly toxic pesticide, and the extract of Sophora alopecuroides as described in section 1) under “Extract of alkaloids from plants”.

Compound	1d after Spray Efficacy (%)	1d after Spray Pests +/− Rate (%)	3d after Spray Efficacy (%)	3d after Spray Pests +/− Rate (%)	7d after Spray Efficacy (%)	7d after Spray Pests +/− Rate (%)
COP(=O)(OC)OC=C(Cl)Cl [Dichlorphos, dichlorophos]	68.8	−43.48	64.43	−60.87	60.32	−60.32
O=[N+]([O-])NC1=NCCN1Cc1ccc(Cl)nc1 [Imidacloprid, imidacloprid]	67.8	−48.47	61.3	−60.3	60.7	−60.7
